In the supplement of paper PMC10307832:

Assays:
Assay in all cases: relative viability (nuclei count vs DMSO), 5 days (fraction); higher = more cells survive
Hydroxychloroquine = compound: CCN(CCO)CCCC(C)Nc1ccnc2cc(Cl)ccc12 [Hydroxychloroquine]
Procedure, shortened: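 Lung cancer cell lines received five library-drug doses (not always all listed) spaced by √10, pinned on vehicle-anchored 1536-well plates after an overnight stay at 37 °C. Five days later, with no medium change, nuclei were Hoechst-stained, imaged at 4× and counted with MetaXpress. Viability is treated-well nuclei relative to vehicle-well nuclei, as a median across plates. Passing plates had control CV below 25% and at least one doubling.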

[1] = compound: CCN(CCO)CCCC(C)Nc1ccnc2cc(Cl)ccc12 [Hydroxychloroquine] + N=C(N)NC(=N)NCCc1ccccc1 [Phenformin] (partner 250 µM)
Procedure, shortened: (§1)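 Each reported value is a median over duplicate plates. It expresses relative viability: treated-well nuclei count divided by vehicle-well nuclei count. Lung cancer cell lines in 1536-well plates were dosed by pin tool a day after seeding, alone with one drug or with a fixed anchor-drug dose plus five library-drug doses (not always all listed) in √10 steps, and nuclei were counted after 5 days.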

[2] = compound: CCN(CCO)CCCC(C)Nc1ccnc2cc(Cl)ccc12 [Hydroxychloroquine] + COc1cccc2cc(-c3nc([C@H]4CC[C@H](C(=O)O)CC4)n4ncnc(N)c34)[nH]c12 [OSI-027] (partner 0.5 µM)
Procedure, shortened: as §1

[3] = compound: CCN(CCO)CCCC(C)Nc1ccnc2cc(Cl)ccc12 [Hydroxychloroquine] + CC(=O)Nc1cccc(-n2c(=O)n(C3CC3)c(=O)c3c(Nc4ccc(I)cc4F)n(C)c(=O)c(C)c32)c1 [Trametinib] (partner 0.02 µM)
Procedure, shortened: as §1

Cell Line | relative viability (Hydroxychloroquine; 0.5 µM) | relative viability (Hydroxychloroquine; 1.581 µM) | relative viability (Hydroxychloroquine; 5 µM) | relative viability (Hydroxychloroquine; 15.81 µM) | relative viability (Hydroxychloroquine; 50 µM) | relative viability ([1]; first compound 0.5 µM) | relative viability ([1]; first compound 1.581 µM) | relative viability ([1]; first compound 5 µM) | relative viability ([1]; first compound 15.81 µM) | relative viability ([1]; first compound 50 µM) | relative viability ([2]; first compound 0.5 µM) | relative viability ([2]; first compound 1.581 µM) | relative viability ([2]; first compound 5 µM) | relative viability ([2]; first compound 15.81 µM) | relative viability ([2]; first compound 50 µM) | relative viability ([3]; first compound 0.5 µM) | relative viability ([3]; first compound 1.581 µM) | relative viability ([3]; first compound 5 µM) | relative viability ([3]; first compound 15.81 µM) | relative viability ([3]; first compound 50 µM)
HCC-78 | 1.04 | 0.903 | 1.03 | 1.01 | 0.94 | 0.809 | 0.739 | 0.716 | 0.653 | 0.741 | 0.377 | 0.376 | 0.366 | 0.323 | 0.349 | 0.823 | 0.834 | 0.878 | 0.752 | 0.904
HCC-366 | 1.01 | 0.981 | 0.986 | 1.06 | 1.03 | 0.564 | 0.558 | 0.597 | 0.605 | 0.657 | 0.896 | 0.932 | 0.673 | 0.862 | 1.05 | 0.334 | 0.323 | 0.355 | 0.282 | 0.458
HCC-827 | 1.03 | 1.02 | 1.04 | 1.02 | 1.06 | 0.447 | 0.339 | 0.359 | 0.395 | 0.414 | 0.802 | 0.572 | 0.821 | 1.03 | 0.763 | 0.506 | 0.479 | 0.488 | 0.563 | 0.531
HOP-62 | 1.04 | 1.01 | 1.05 | 1.08 | 1.08 | 0.557 | 0.603 | 0.762 | 0.686 | 0.755 | 0.877 | 0.892 | 0.843 | 0.825 | 0.767 | 0.37 | 0.387 | 0.386 | 0.397 | 0.341
IA-LM | 0.922 | 0.971 | 0.902 | 0.962 | 0.959 | – | – | – | – | – | – | – | – | – | – | – | – | – | – | –
LC-2-ad | 1 | 0.982 | 0.996 | 0.998 | 1.02 | 0.587 | 0.521 | 0.573 | 0.632 | 0.54 | 0.953 | 0.793 | 0.853 | 0.805 | 0.868 | 0.925 | 0.98 | 0.941 | 0.865 | 0.924
LCLC-97TM1 | 1.14 | 1.06 | 1.03 | 0.944 | 0.946 | 0.435 | 0.409 | 0.488 | 0.422 | 0.384 | 0.614 | 0.465 | 0.569 | 0.563 | 0.622 | 0.208 | 0.185 | 0.196 | 0.23 | 0.16
LCLC-103H | 1.01 | 0.932 | 0.998 | 1 | 1.01 | 0.347 | 0.33 | 0.341 | 0.335 | 0.346 | 0.482 | 0.488 | 0.547 | 0.465 | 0.562 | 0.684 | 0.642 | 0.678 | 0.719 | 0.695
LK-2 | 1.01 | 0.96 | 0.941 | 1.14 | 1.24 | 0.37 | 0.314 | – | 0.33 | 0.574 | 0.201 | 0.198 | 0.155 | 0.206 | 0.208 | 0.864 | 0.599 | 0.707 | 0.876 | 1.01
